Data from patent US20240238417A1, “METHODS OF PRODUCING TUMOR VACCINES AND USES THEREOF” (priority 2021, published 2024).

Experiments:
CT26 tumor = assay: Local gNO treatment of CT26 tumor bearing mice, primary tumor; type: in vivo
Protocol: Mice: All in vivo experimental procedures were carried out in accordance with the protocol approved by the Ethics Committee on the Use and Care of Animals. Institutional Animal Care and Use Committee (IACUC): 67-09-2019 and IL-20-3-149. The in vivo assays were performed on Balb/c or C57BU6J mice: 7-10 weeks of age, obtained from Envigo (Ness-Ziona, Israel), unless otherwise indicated.
Inoculation of tumor cells: Cancer cell suspensions at a concentration of 2.5-10.0×10^6 cells/ml were inoculated to the right flank of mice at a dose volume of 0.1 ml. Administration was performed as soon as possible following cell suspension preparation and after manual shaking prior to inoculation. The cell suspension was then aspirated into a 1-ml syringe with a 27G needle for subcutaneous (s.c.) injection.
Test article treatment: Mice were first anesthetized by an intraperitoneal (i.p) injection of 100 mg/kg ketamine and 20 mg/kg xylazine hydrochloride solution. After 10 minutes, tumor-bearing mice were treated with the indicated dose of gNO.
In all protocols, the gas was delivered from NO in N2 cylinders. The outlet pressure was set to 2-3.5 bar using a pressure regulator that was connected directly to the cylinder.
In protocols that involve administration by needle injection, a silicone hose was connected directly to the pressure regulator on one end and to a manual or digital MFC on the other end. The flow was adjusted to 0.05 LPM-0.25 LPM. An additional silicone hose was connected to the flow controller as well as to a 23G hypodermic needle. The needle was inserted horizontally into the center of each tumor.
Tumor volume calculation: Local tumor growth was determined by measuring 3 mutually orthogonal tumor dimensions 2-3 times per week, according to the following formula:
or Tumor volume=Diameter 1× Diameter 2^2/2, unless otherwise indicated. Diameter 1 represents length, Diameter 2 represents width and Diameter 3 represents height.
BALB/c female and male mice were obtained from Almog Diagnostic that purchased them from Envigo, Israel. The mice were 7-8 weeks of age. Animal care and experimentation were performed in accordance with the Bar-Ilan University guidelines.
CT-26, a colon carcinoma cell line was induced in a BALB/c mouse by chemical carcinogenesis.
Cells were cultured in Roswell Park Memorial Institute (RPMI) 1640 supplemented with 100 U/ml penicillin, 100 μg/ml streptomycin, 2 mM L-glutamine; 1 mM sodium pyruvate; 1% non-essential amino acid solution; 10% fetal calf serum. Cultures were maintained at 37° C. in a humidified incubator with a 5% CO2 atmosphere.
Mice were inoculated subcutaneously with 5×10^5 CT-26 cells suspended in 100 μL Hank's Balanced Salt Solution (HBSS) into the low lateral side of the back. Local tumor growth was determined by measuring two mutually orthogonal tumor diameters with a caliper. The volume of the tumor was calculated using the formula: Vol=D1×D2×D2/2, where D1, D2 are two mutually orthogonal tumor diameters.
Air-1 is a female Balb/c mouse that was treated twice. On day 0 the tumor volume was 64.85 mm^3.
NO-1 is a female Balb/c mouse and was treated once. […] Then, the skin was removed from the tumor, and the tumor was re-exposed to gNO via a perforated flask filled with gNO using the same parameters.
NO-2 is a male Balb/c mouse and was treated 3 times. On day 0 the tumor volume was 38.51 mm^3. Day 0—gNO at 50,000 ppm was administered for 3.8 minutes at a flow rate of 0.9 using a cap. Day 5: gNO at 10,000 ppm was administered for 30 minutes using a cap. Then, gNO was delivered intra-tumorally by a 23G needle such as shown in FIG. 11B at 0.3 LPM for another 10 minutes, using an intra-tumoral channel. The tip of the needle was directed at the outside area. Day 11: gNO at 10,000 ppm was delivered to the tumor for 5 minutes and at a flow rate of 0.3 LPM, using a 23G needle and an intra-tumoral channel.
In an additional set of experiments, aluminum disposable gas cylinders were used. […]

Panc02.03 cells = assay: XTT viability of Panc02.03 cells after gas exposure in chamber; type: cell-based; conditions: 10,000 ppm-25,000 ppm gNO for 1-15 minutes
Excerpt: Tumor celllines: The mouse colon carcinoma cell line, CT26WT, was cloned from CT26, an N-nitroso-N-methylurethane-induced, undifferentiated colon carcinoma cell line. The mouse mammary tumor cell line, 4T1, is a 6-thioguanine resistant cell line. When injected into BALB/c mice, 4T1 spontaneously produces highly metastatic tumors that can metastasize to the lung, liver, lymph nodes and brain while the primary tumor is growing in situ. […] Panc 02.03 is a pancreatic adenocarcinoma epithelial cell line derived in 1995 from a primary tumor removed from the head-of-the-pancreas of […] with pancreatic adenocarcinoma. CT26, 4T1 and Panc 02.03 cell lines were grown in RPMI based media (ATCC 30-2001) supplemented with fetal bovine serum and pen-strep (both from Biological Industries). The LLC1/LU2 cell line was grown in DMEM based media (ATCC 30-2002) supplemented with fetal bovine serum and pen-strep (Biological industries). The B16.F10 cell lines was grown in DMEM based media (ATCC 30-2002) supplemented with fetal bovine serum and pen-strep (Biologicalindustries).
In vitro systems: One system involves a direct exposure of cancer cells to gNO in 96-well plate. Gaseous NO at 150 ppm-50,000 ppm was delivered at 0.3 LPM for 10 seconds—3 minutes. In another system, cancer cells were exposed to gNO in a box made of acrylic glass. […]

CT26 challenge tumor = assay: gNO, tumor excision and CT26 re-challenge: tumor take and survival; type: in vivo, mice; conditions: about 75 days
Protocol: CT26 tumor-bearing male mice were treated with 20,000 ppm and 50,000 ppm gNO intra-tumorally for 5 minutes. Fourteen days post gNO treatment, all tumors were excised. A week post surgery, all mice were re-challenged via a second inoculation of 5×10^5 CT26 cells, and tumor take and survival were monitored during about 75 days, as depicted in FIG. 21A.

[N]=O [gNO, nitric oxide]
CT-26 tumor destruction (CT26 tumor; 10,000 ppm gNO, 0.9 LPM, 20 minutes in flask, 1-17 days post treatment): 100% | tumor on photographs after treatment (CT26 tumor; 10,000 ppm gNO, 0.9 LPM, 20 minutes in flask, 1 minute, 9 days and 14 days post treatment): the tumor was destructed | cured mice (CT26 tumor; 25,000 ppm gNO intra-tumoral 15 minutes, 0.25 LPM, repeated a week later, 44 days post the first treatment): 50% | mice with CT-26 tumor growth inhibition compared to air treatment (CT26 tumor; 50,000 ppm intra-tumoral 2-3 minutes 0.2 LPM, then 10,000 ppm 6 minutes intra-tumoral and 4 minutes to outer layer): ⅔ | tumor on photographs after treatment (CT26 tumor; 200,000 ppm gNO for 2 seconds, 0.01 LPM, 9 days after treatment): the tumor disappeared | size of air-treated tumor relative to gNO-treated tumors (CT26 tumor; CT26 tumors, 10,000-50,000 ppm gNO (mice NO-1, NO-2), 12 days post treatment 1): more than 30 times | viability of Panc02.03 cells (Panc02.03 cells): less than 5% | challenge tumor development (CT26 challenge tumor; 20,000 ppm and 50,000 ppm gNO 5 minutes, excision day 14, re-challenge a week post surgery): no tumor development | survival (CT26 challenge tumor; 50,000 ppm gNO 5 minutes, excision, re-challenge): 100%
